From patent publication US20130316958A1 (University of Southern California, priority 2010, published 2013)
Residues, ends and D or L forms follow the SMILES beside them. No end group written: not given here. *: point of attachment. Cbz = O=C(OCc1ccccc1)*; CH2F = FC*

Tests used:
Format in all cases: cell-based
[1] = tested on: human Beclin1; assay: Beclin1 siRNA knockdown in BCBL1 cells
Experimental: (§1) All siRNAs were produced by Dharmacon Research. siRNAs specific for human Beclin1 (5′[…]3′) and a nonspecific scrambled control siRNA were transfected using DharmaFect reagent (Dharmacon) according to the manufacturer's instructions. At 48-72 hr post-transfection, cells were analyzed for autophagy. Trypan blue staining and a Beckman Coulter Z2 Particle Count and Size analyzer were used to determine cell death (as a percentage) at day 5.

[2] = tested on: KSHV-infected BCBL1 cells; assay: Rapamycin- or zVAD-induced growth suppression and autophagic death
Experimental: (§2) The effect of vFLIP on autophagy was tested in a KSHV-infected BCBL1 cell line. TREX-BCBL-Vector and TREX-BCBL-vFLIP cells were treated with rapamycin or left untreated for 6 days in the presence of doxycycline and subjected to scanning EM, to examine the morphologies of over 100 dead cells and quantify cell death for apoptosis and autophagic death, or subjected to PI staining and cell cycle analysis.
as §1

[3] = tested on: ALL cells; assay: Tumor cell viability by trypan blue exclusion, ALL cells; conditions: for anticancer activity in ALL cell lines: BV-173 and SUP-B15, FIG. 5
Experimental: (§3) Tumor cells were treated with peptides at various concentrations for 12 hours and their viability measured by trypan blue exclusion, followed by analyses using the Beckman Coulter Z2 Particle Count and Size Analyzer (BC Z2 CS Analyzer). A minimum of 100 cells per sample using triplicate samples was counted per condition per experiment.

[4] = tested on: KSHV-infected BCBL1 cells; assay: Combinatory treatment with rapamycin and peptide; conditions: 25 nM rapamycin and 20 μM peptide, versus rapamycin or peptide alone
[5] = tested on: KSHV-infected TREX-BCBL-Vector cells; assay: GFP-LC3 puncta autophagy assessment after peptide treatment; conditions: 30 or 50 μM peptide, 12 hr
Description: (§4) The vFLIP α2 (10 aa) and α4 (12 aa) peptides that independently bound Atg3 at high efficiency were fused with the HIV-1 TAT protein transduction domain for intracellular delivery (Gump and Dowdy (2007) Trends Mol. Med. 13:443-448) and tested for their potential effects on autophagy induction. The K-α2 and K-α4 peptides contained KSHV vFLIP aa20-29 and aa128-139 regions, respectively, as retro-inverso versions to circumvent the proteolytic degradation. Mutant peptides K-α2m and K-α4m were also included, which replaced the hydrophobic core residues of the K-α2 (L21F22L23) and K-α4 (F130L-WVY139) peptides with alanines, as well as the C-α2 and C-α4 peptides containing the cFLIPs regions aa19-28 and aa128-139, respectively. At 12 hr post-transfection with GFP-LC3, KSHV-infected TREX-BCBL-Vector and TREX-BCBL-vFLIP cells were incubated with various concentrations of the peptides or rapamycin for an additional 12 hr, followed by an assessment of the GFP-LC3 puncta and cell death. […] Peptide-treated TREX-BCBL-Vector and TREX-BCBL-vFLIP cells were subjected to immunoblotting with αLC3 and aactin.

[6] = tested on: virus-associated or non-virus-associated lymphoma cells; assay: Cell-type specificity of vFLIP peptide-induced death; conditions: 30 or 50 μM peptide overnight
Experimental: The potential cell-type specificity of the activity of the vFLIP peptides was assessed by treating virus-associated or non-virus-associated lymphoma cells with 30 or 50 μM of the K-α2 or the K-α4 peptide overnight and subsequently assessing death levels.

[7] = tested on: LC3-II in BCBL1 cells; assay: Immunoblotting with αLC3 of peptide-treated cells; conditions: immunoblot
Description: as §4

[8] = tested on: mTor kinase activity in BCBL1 cells; assay: Immunoblot of p70S6K and ribosomal protein S6 phosphorylation; conditions: treated BCBL1 cells
Experimental: Levels of phosphorylation of p70S6K and ribosomal protein S6 in BCBL1 cells were evaluated by immunoblotting with α-p70S6K, aphospho-specific p70S6K, aphospho-specific S6, or αactin.

[9] = tested on: human T cell lymphoblast-like cells, Jurket T; assay: Tumor cell viability by trypan blue exclusion, Jurket T; conditions: FIG. 6A
Experimental: as §3

[10] = tested on: human erythromyeloblastoid leukemia cells, K562; assay: Tumor cell viability by trypan blue exclusion, K562; conditions: FIG. 6B
Experimental: as §3

[11] = tested on: HCT116; assay: Tumor cell viability, HCT116 colon cancer line; conditions: FIG. 7C
Experimental: as §3

[12] = tested on: 293T cells; assay: Tumor cell viability, 293T cells; conditions: FIG. 7B
Experimental: as §3

[13] = tested on: LNCap cells; assay: Tumor cell viability, LNCap prostate cancer line
Experimental: as §3

[14] = tested on: NIH3T3 cells; assay: TNFα-induced apoptosis by PI staining and flow cytometry; conditions: CHX and TNF-α 12 hr
Description: To determine the effects of the interactions of vFLIP with FADD, IKKαβγ, and 14-3-3σ on anti-autophagy activity, NIH3T3 cells stably expressing various vFLIP mutants were constructed: m14-3-3σ, which lacks 14-3-3σ-binding; mTRAF2, which lacks TRAF2-binding (Guasparri et al. (2006) EMBO Rep. 7:114-119); 67AAA and 58AAA, which have reduced NF-κB activation (Matta and Chaudhary (2004) Proc. Natl. Acad. Sci. USA 101:9399-9404); and mFADD, which lacks FADD-binding (Yang et al. (2005) Mol. Cell. 20:939-949). These cells were treated with either cyclohexamide (CHX) alone or CHX and TNF-α for 12 hr or with 2 μM rapamycin for 3 hr. Propidium iodide (PI) staining and flow cytometry analysis were performed to determine apoptosis levels. Alternatively, NIH3T3 cells containing vector, KSHV vFLIP, or its mutants were transfected with an NF-κB-luciferase reporter construct and a control renilla luciferase plasmid, pRL-SV40 (Promega). At 48 hr post-transfection, luciferase activity was measured with a luminometer using a dual luciferase assay kit (Promega) and normalized with renilla luciferase activity to determine transfection efficiency. GFP-LC3 puncta were detected using an inverted fluorescence microscope and the autophagy levels quantified as means (±SD) of the results from three independent experiments.

[15] = tested on: TREX-BCBL cells; assay: vFLIP expression in KSHV-infected BCBL1 cells: autophagy, growth suppression and death; conditions: ectopic expression in BCBL1 cells
Experimental: To investigate whether vFLIP expression suppresses autophagy in virus-infected cells, a KSHV-infected BCBL1 cell line was constructed (TREX-BCBL) in which a Flag-tagged KSHV-vFLIP gene was integrated into the chromosomal DNA under the control of a tetracycline-inducible promoter. (Nakamura et al. (2003) J. Virol. 77:4205-4220). At 12-16 hr post-transfection with GFP-LC3, TREX-BCBL-Vector and TREX-BCBL-vFLIP cells were treated with Doxycycline for 24 hr, followed by incubation with 2 μM rapamycin for an additional 12 hr. The detection of GFP-LC3 and autophagy levels was performed as described above, vFLIP expression was detected by IB with anti-Flag, and autophagosomes were visualized by scanning EM (scale bar=50 nm). Treatment of these cells with doxycycline strongly activated Flag-vFLIP expression.
as §2, §1

Molecule | anticancer activity in ALL cell lines [3] | growth suppression and cell death in combination with rapamycin [4] | autophagy induction (GFP-LC3 puncta) [5] | cell death by lymphoma cell type [6] | amount of LC3-II [7] | phosphorylation of p70S6K [8] | phosphorylation of ribosomal protein S6 [8] | other results
5′AAGAUCCUGGACCGUGUCACC3′ [Beclin1 siRNA] |  |  |  |  |  |  |  | endogenous Beclin1 expression [1]: significantly reduced endogenous Beclin1 expression; effect on rapamycin-induced autophagic death ([1]; cell death at day 5): attenuated rapamycin-induced autophagic death
CO[C@H]1C[C@@H]2CC[C@@H](C)[C@@](O)(O2)C(=O)C(=O)N2CCCC[C@H]2C(=O)O[C@H]([C@H](C)C[C@@H]2CC[C@@H](O)[C@H](OC)C2)CC(=O)[C@H](C)/C=C(\C)[C@@H](O)[C@@H](OC)C(=O)[C@H](C)C[C@H](C)/C=C/C=C/C=C/1C [rapamycin] |  |  |  |  |  |  |  | dead cells with features characteristic of autophagic death (EM) ([2]; rapamycin, 6 days, over 100 dead cells examined): approximately 60%
COC(=O)CC(NC(=O)C(C)NC(=O)C(NC(=O)OCc1ccccc1)C(C)C)C(=O)CF (stereo not drawn) [zVAD, benzyloxycarbonylvalyl-alanyl-aspartic acid (O-methyl)-fluoro-methylketone] (Cbz-Val-Ala-Asp(OMe)-CH2F; configuration not given here) |  |  |  |  |  |  |  | growth suppression and cell death ([2]; BCBL1 cells): effectively induced growth suppression and death of BCBL1 cells
RRRQRRKKRGY-G-FVNLLFLVVE (RRRQRRKKRGYGFVNLLFLVVE; not fully specified) [K-α2, HIV-1 TAT-fused retro-inverso peptide containing KSHV vFLIP aa20-29] | significant anticancer activities | marked increase of growth suppression and cell death | able to induce autophagy in TREX-BCBL-Vector cells as effectively as 2 μM rapamycin | primarily targeted KSHV-infected PEL cells (BCBL1, BCP-1, and BC-3), but not KSHV/EBV-coinfected PEL cells (BC-1 and JSC-1), EBV-immortalized Bob-B cells, nor non-virus-associated lymphoma cells (BJAB, K562 and Jurkat-T) | A high amount of LC3-II was detected | marginal reduction | remained unaffected | 
RRRQRRKKRGY-G-NEMCYVWHLFTQ (RRRQRRKKRGYGNEMCYVWHLFTQ; not fully specified) [K-α4, HIV-1 TAT-fused retro-inverso peptide containing KSHV vFLIP aa128-139] | significant anticancer activities | marked increase of growth suppression and cell death | able to induce autophagy in TREX-BCBL-Vector cells as effectively as 2 μM rapamycin | broadly targeted most lymphoma cells, resulting in varying degrees of cell death | A high amount of LC3-II was detected | marginal reduction | remained unaffected | cell death in Jurket T [9]: induced cell death; cell death in K562 [10]: induced cell death; cell death in ALL cells ([3]; TAT linked peptide, 30 μM and 50 μM, compared to TAT alone, FIG. 1): induced cell deaths in various ALL cells; anticancer activity in HCT116 [11]: anticancer activities; anticancer activity in 293T cells [12]: anticancer activities; anticancer activity in LNCap cells ([13]; FIG. 7A): anticancer activities; anticancer activity in LNCaP cells (cell count and relative luminescence) ([13]; FIG. 8): confirms the anticancer activities
mFADD (protein, UniProt Q61160 1-205, looked up) FAS-associated death domain …: MDPFLVLLHSLSGSLSGNDLMELKFLCRERVSKRKLERVQSGLDLFTVLLEQNDLERGHTGLLRELLASLRRHDLLQRLDDFEAGTATAAPPGEADLQVAFDIVCDNVGRDWKRLARELKVSEAKMDGIEEKYPRSLSERVRESLKVWKNAEKKNASVAGLVKALRTCRLNLVADLVEEAQESVSKSENMSPVLRDSTVSSSETP |  |  |  |  |  |  |  | block of TNFα-induced apoptosis [14]: either poorly blocked TNFα-induced apoptosis or no longer block it at all; block of rapamycin- or zVAD-induced growth suppression and autophagic death [15]: almost completely blocked
